According to patent publication US20120149574A1, “Methods and Compositions for Managing Water Quality in a Body of Water” (priority 2010, published 2012):

What was measured:
algae [1] = assay: Comparative pond treatment vs. copper sulfate alone, multiple applications: algae; format: in vivo, green algae (Chlorophyta), cyanobacteria (Cyanophyta)
Experimental: (§1) One pond was treated with a liquid composition prepared as in Example 1 (hereinafter termed “Composition E1”) and the other with copper sulfate pentahydrate. Both ponds were treated with the same concentration of copper on the same days. Five algaecide applications, each approximately one week apart, were conducted on the corresponding pond as a surface spray. The first application was a 1 ppm copper rate, whereas the following applications were all 0.5 ppm copper. All five treatments were completed by the 34th day following the initial treatment (“DAT”), though water sampling continued to evaluate changes in algae growth and water clarity. Representative water samples were periodically collected from each of the ponds at the same durations following treatments. […] As mentioned previously, when used alone, alum is generally applied at such high doses that a buffer is concurrently applied to prevent dramatic changes in water quality that can result in acute toxicity to aquatic organisms.

[2] = Comparative pond treatment, multiple applications: turbidity, phosphorus, water quality; conditions: five applications, FIGS. 11 and 12
Experimental: as §1

algae [3] = assay: Comparative pond treatment vs. copper sulfate alone, single application: algae; format: in vivo, green algae (Chlorophyta), cyanobacteria (Cyanophyta)
Experimental: (§2) Two ponds of similar dimensions (0.1 surface acres, 4 foot average depth) and similar water character, located beside each other, were used in this experiment. Both ponds were treated once (immediately following the initial sampling event) with the same concentration of copper, 1 ppm, and monitored through time. One pond was treated with Composition E1 and the other with copper sulfate pentahydrate. The objectives were 1) to evaluate the change in algae assemblage composition, 2) to measure algaecidal impacts and re-growth of algae, 3) to measure changes in phosphorus and turbidity following treatment.

[4] = Comparative pond treatment, single application: turbidity and total phosphorus; conditions: single application 1 ppm copper
Experimental: as §2

O.O.O.O.O.O=S(=O)([O-])[O-].[Cu+2] [copper sulfate, copper sulfate pentahydrate]
chlorophyll levels following cessation of the algaecide treatments (algae [1]; after fifth application (34 DAT) (FIG. 9)): rapidly and significantly increased | algal assemblage composition (algae [1]; during and after five applications (FIGS. 13 and 14)): cyanobacteria (Cyanophyta) became dominant | chlorophyll a concentration, highest measurements (algae [1]; five applications (1 ppm then 0.5 ppm copper), sampling to 69 DAT (FIG. 9), copper sulfate: many measurements, Composition E1: on one occasion): exceeding 100 μg/L | total phosphorus (TP) and free reactive phosphorus (FRP) concentrations over time [2]: substantially higher than the Composition E1-treated pond | algal assemblage following treatment (algae [3]; single application 1 ppm copper (FIGS. 18 and 19)): remained dominated by cyanobacteria | decrease of treated algae (algae [3]; single application 1 ppm copper, 7 DAT): 78% | chlorophyll a (algae [3]; single application 1 ppm copper, 7 DAT (FIG. 15)): significantly decreased | chlorophyll a (algae [3]; single application 1 ppm copper, 14 DAT (FIG. 15)): significantly higher | increase in algal densities (algae [3]; single application 1 ppm copper, between 7 and 14 DAT): 350% | total phosphorus ([4]; 7 DAT (FIG. 17)): little change | total phosphorus ([4]; 14 DAT vs initial (FIG. 17)): notable increase from initial levels
